According to the Kinase Knowledgebase extract (Sharma et al. 2016):

Target: MAPK14 (human) (UniProt Q16539)
Assay: Inhibition of MAPK14 Kinase Activity

Chain of MAPK14 (human) (Q16539 whole entry, looked up): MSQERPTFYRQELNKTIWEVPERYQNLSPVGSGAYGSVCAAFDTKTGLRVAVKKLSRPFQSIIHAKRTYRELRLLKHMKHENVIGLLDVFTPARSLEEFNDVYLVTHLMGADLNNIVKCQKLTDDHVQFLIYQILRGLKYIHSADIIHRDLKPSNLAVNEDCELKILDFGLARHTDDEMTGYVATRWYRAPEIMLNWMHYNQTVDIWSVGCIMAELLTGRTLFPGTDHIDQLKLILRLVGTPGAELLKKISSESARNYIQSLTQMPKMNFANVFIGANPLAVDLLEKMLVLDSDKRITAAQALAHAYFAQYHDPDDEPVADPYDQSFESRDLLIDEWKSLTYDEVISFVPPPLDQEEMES

IC50 [nM] | SMILES
≤ 1000 | Cc1cc(Nc2c(C(N)=O)sc3c2ccc(=O)n3-c2ccccc2Cl)ccc1F
≤ 1000 | CNC(=O)c1sc2c(ccc(=O)n2-c2ccccc2)c1Nc1ccccc1
≤ 1000 | CCc1cccc(Nc2c(C#N)sc3c2ccc(=O)n3-c2ccccc2)c1
≤ 1000 | CCOC(=O)c1sc2c(ccc(=O)n2-c2ccccc2)c1Nc1ccccc1
≤ 1000 | NC(=O)c1sc2c(ccc(=O)n2-c2ccc(C(O)CO)cc2)c1Nc1ccccc1 (centres undefined)
≤ 1000 | Cc1cccc(Nc2c(C(N)=O)sc3c2ccc(=O)n3C2CC2)c1
≤ 1000 | CCOC(=O)c1sc2c(ccc(=O)n2-c2ccc(F)cc2)c1Nc1ccccc1C#N
≤ 1000 | N#Cc1sc2c(ccc(=O)n2CC2CC2)c1Nc1ccccc1
≤ 1000 | Cc1cc(Nc2c(C#N)sc3c2ccc(=O)n3CC2CC2)ccc1F
≤ 1000 | CCOC(=O)c1sc2c(ccc(=O)n2-c2ccc(SC)cc2)c1Nc1cccc(C)c1
≤ 1000 | Cc1ccc(Nc2c(C(N)=O)sc3c2ccc(=O)n3CC2CC2)c(C)c1
≤ 1000 | NC(=O)c1sc2c(ccc(=O)n2-c2ccccc2)c1Nc1cccc(Cl)c1
≤ 1000 | N#Cc1ccccc1Nc1c(C(N)=O)sc2c1ccc(=O)n2-c1ccc(F)cc1
≤ 1000 | CC(C)(O)CNC(=N)c1sc2c(ccc(=O)n2-c2ccccc2)c1Nc1ccc(F)cc1F
≤ 1000 | O=c1ccc2c(Nc3ccccc3)csc2n1-c1ccccc1
≤ 1000 | O=C(NCCCN1CCOCC1)c1sc2c(ccc(=O)n2-c2ccccc2)c1Nc1ccccc1
≤ 1000 | Cc1ccc(C#N)c(Nc2c(C(N)=O)sc3c2ccc(=O)n3-c2ccccc2)c1
≤ 1000 | CCOC(=O)c1sc2c(ccc(=O)n2-c2ccc(F)cc2)c1Nc1cccc(C)c1C#N
≤ 1000 | CCOC(=O)c1sc2c(ccc(=O)n2-c2ccccc2)c1Nc1ccc(C#N)c(Cl)c1
≤ 1000 | Cc1cccc(Nc2c(C#N)sc3c2ccc(=O)n3-c2ccccc2)n1
≤ 1000 | N#Cc1sc2c(ccc(=O)n2-c2ccccc2)c1Nc1cc(Cl)cc(Cl)c1
≤ 1000 | CN(C)c1ccc(-n2c(=O)ccc3c(Nc4ccccc4)c(C(=O)NCCCn4ccnc4)sc32)cc1
≤ 1000 | COc1ccc(-n2c(=O)ccc3c(Nc4ccc(F)cc4F)c(C#N)sc32)cc1
≤ 1000 | Cc1cccc(Nc2c(C(N)=O)sc3c2ccc(=O)n3-c2ccc(F)cc2)c1C#N
≤ 1000 | CCOC(=O)c1sc2c(ccc(=O)n2-c2ccccc2)c1N(C)c1ccccc1
≤ 1000 | NC(=O)c1sc2c(ccc(=O)n2CC2CC2)c1Nc1cccc(Br)c1

IC50 [nM] | SMILES
≤ 1000 | CN(C)c1ccc(-n2c(=O)ccc3c(Nc4ccccc4)c(C(=O)NCCN4CCCCC4)sc32)cc1
≤ 1000 | N#Cc1sc2c(ccc(=O)n2-c2ccccc2)c1Nc1ccc(F)cc1F
≤ 1000 | NC(=O)c1sc2c(ccc(=O)n2-c2ccccc2)c1Nc1ccccc1Cl
≤ 1000 | CCOC(=O)c1sc2c(ccc(=O)n2-c2ccc(N(C)C)cc2)c1Nc1ccccc1
≤ 1000 | Cc1cccc(Nc2c(C(N)=S)sc3c2ccc(=O)n3-c2ccccc2)c1
≤ 1000 | CCOC(=O)c1sc2c(ccc(=O)n2-c2ccccc2)c1Nc1cc(C)ccc1C#N
≤ 1000 | NC(=O)c1sc2c(ccc(=O)n2-c2ccccc2)c1Nc1cc(Cl)cc(Cl)c1
≤ 1000 | N#Cc1sc2c(ccc(=O)n2-c2ccccc2)c1Nc1ccc(F)c(Cl)c1
≤ 1000 | CCOC(=O)c1sc2c(ccc(=O)n2-c2ccccc2)c1Nc1cccnc1Cl
≤ 1000 | O=C(c1sc2c(ccc(=O)n2-c2ccccc2)c1Nc1ccc(F)cc1)N1CCCC1
≤ 1000 | NC(=O)c1sc2c(ccc(=O)n2-c2ccccc2)c1Nc1ccccc1OC(F)(F)F
≤ 1000 | O=C(NCCN1CCCCC1)c1sc2c(ccc(=O)n2-c2ccccc2)c1Nc1ccccc1
≤ 1000 | CCOC(=O)c1sc2c(ccc(=O)n2-c2ccccc2)c1Nc1ccccc1Cl
≤ 1000 | C=Cc1ccc(-n2c(=O)ccc3c(Nc4ccc(F)cc4F)c(C(=O)OCC)sc32)cc1
≤ 1000 | NC(=O)c1sc2c(ccc(=O)n2-c2ccccc2)c1Nc1ccccc1O
≤ 1000 | CCOC(=O)c1sc2c(ccc(=O)n2-c2ccsc2)c1Nc1ccc(F)c(C)c1
≤ 1000 | NC(=O)c1sc2c(ccc(=O)n2-c2ccccc2)c1Nc1ccccc1
≤ 1000 | CCOC(=O)c1sc2c(ccc(=O)n2-c2ccccc2[N+](=O)[O-])c1Nc1ccc(F)cc1F
≤ 1000 | CCOC(=O)c1sc2c(ccc(=O)n2-c2ccsc2)c1Nc1ccc(F)cc1F
≤ 1000 | Cc1cccc(Nc2c(C#N)sc3c2ccc(=O)n3-c2ccccc2Cl)c1
≤ 1000 | CCOC(=O)c1sc2c(ccc(=O)n2-c2ccc3c(ccn3C)c2)c1Nc1ccccc1C#N
≤ 1000 | Cc1c(Br)cccc1Nc1c(C#N)sc2c1ccc(=O)n2-c1ccccc1
≤ 1000 | O=C(NCCN1CCCCC1)c1sc2c(ccc(=O)n2CC2CC2)c1Nc1ccccc1
≤ 1000 | Cc1ccccc1-n1c(=O)ccc2c(Nc3ccc(F)cc3F)c(C(N)=O)sc21
≤ 1000 | CON(C)C(=O)c1sc2c(ccc(=O)n2-c2ccccc2)c1Nc1ccc(F)cc1F
≤ 1000 | Cc1cc(Nc2c(C(N)=O)sc3c2ccc(=O)n3-c2ccccc2)ccc1F

IC50 [nM] | SMILES
≤ 1000 | NC(=O)c1sc2c(ccc(=O)n2-c2ccccc2[N+](=O)[O-])c1Nc1ccc(F)cc1F
≤ 1000 | CCN(CC)CCNC(=O)c1sc2c(ccc(=O)n2-c2ccccc2)c1Nc1ccccc1
≤ 1000 | CON(C)C(=O)c1sc2c(ccc(=O)n2-c2ccccc2)c1Nc1ccccc1
≤ 1000 | N#Cc1sc2c(ccc(=O)n2-c2ccccc2)c1Nc1c(F)cccc1F
≤ 1000 | Cc1ccc(Nc2c(C#N)sc3c2ccc(=O)n3-c2ccccc2)cc1Br
≤ 1000 | Cc1cccc(Nc2c(C(N)=O)sc3c2ccc(=O)n3-c2ccc(F)cc2)c1
≤ 1000 | N#Cc1sc2c(ccc(=O)n2-c2ccccc2)c1Nc1ccccc1O
≤ 1000 | NC(=O)c1sc2c(ccc(=O)n2-c2ccccc2)c1Nc1c(Cl)cccc1Cl
≤ 1000 | NC(=O)c1sc2c(ccc(=O)n2-c2ccccc2)c1Nc1cccc(Br)c1
≤ 1000 | CCOC(=O)c1sc2c(ccc(=O)n2-c2ccccc2)c1Nc1cccc(Cl)c1C#N
≤ 1000 | CCN(CC)C(=O)c1sc2c(ccc(=O)n2-c2ccccc2)c1Nc1ccccc1
≤ 1000 | CCOC(=O)c1sc2c(ccc(=O)n2-c2ccccc2)c1Nc1ccc(F)cc1F
≤ 1000 | O=C(NCCN1CCOCC1)c1sc2c(ccc(=O)n2-c2ccccc2)c1Nc1ccccc1
≤ 1000 | CCOC(=O)c1sc2c(ccc(=O)n2-c2ccc3c(ccn3S(C)(=O)=O)c2)c1Nc1ccccc1C#N
≤ 1000 | NC(=O)c1sc2c(ccc(=O)n2CC2CC2)c1Nc1ccc(F)cc1F
≤ 1000 | N#Cc1ccccc1Nc1c(C(N)=O)sc2c1ccc(=O)n2-c1ccccc1
≤ 1000 | NC(=O)c1sc2c(ccc(=O)n2CC2CC2)c1Nc1ccc(F)c(Cl)c1
≤ 1000 | Cc1cc(Nc2c(C#N)sc3c2ccc(=O)n3-c2ccccc2)ccc1F
≤ 1000 | Cc1cc(Nc2c(C#N)sc3c2ccc(=O)n3-c2ccccc2C)ccc1F
≤ 1000 | Cc1cccc(Nc2c(C#N)sc3c2ccc(=O)n3-c2ccc(F)cc2)c1
≤ 1000 | CCOC(=O)c1sc2c(ccc(=O)n2-c2ccsc2)c1Nc1ccccc1C#N
≤ 1000 | Cc1cc(F)ccc1Nc1c(C#N)sc2c1ccc(=O)n2-c1ccccc1
≤ 1000 | Cc1cc(Nc2c(C(N)=O)sc3c2ccc(=O)n3-c2ccccc2C)ccc1F
≤ 1000 | C=Cc1ccc(-n2c(=O)ccc3c(Nc4ccccc4)c(C(N)=O)sc32)cc1
≤ 1000 | Cc1cccc(Nc2c(C(N)=O)sc3c2ccc(=O)n3-c2ccccc2)c1C#N
≤ 1000 | CCOC(=O)c1sc2c(ccc(=O)n2-c2ccccc2)c1Nc1ccccc1C#N

IC50 [nM] | SMILES
≤ 1000 | CCOC(=O)c1sc2c(ccc(=O)n2-c2ccc([S+](C)[O-])cc2)c1Nc1ccccc1C#N (centres undefined)
≤ 1000 | N#Cc1sc2c(ccc(=O)n2-c2ccc(OC[C@@H](O)CO)cc2)c1Nc1ccc(F)cc1F
≤ 1000 | CCOC(=O)c1sc2c(ccc(=O)n2-c2ccccc2)c1Nc1ccc(OC)c(F)c1
≤ 1000 | O=C(c1sc2c(ccc(=O)n2-c2ccccc2)c1Nc1ccccc1)N1CCCCC1
≤ 1000 | NC(=O)c1sc2c(ccc(=O)n2-c2ccccc2)c1Nc1ccc(F)cc1F
≤ 1000 | Cc1cc(=O)n(-c2ccccc2)c2sc(C(N)=O)c(Nc3ccccc3)c12
≤ 1000 | CCOC(=O)c1sc2c(ccc(=O)n2-c2ccccc2)c1Nc1cccnc1
≤ 1000 | N#Cc1sc2c(ccc(=O)n2-c2ccccc2)c1Nc1c(Cl)cccc1Cl
≤ 1000 | Cc1cccc(Nc2c(C#N)sc3c2ccc(=O)n3C2CC2)c1
≤ 1000 | CCOC(=O)c1sc2c(ccc(=O)n2CC2CC2)c1Nc1ccc(F)cc1F
≤ 1000 | CCOC(=O)c1sc2c(ccc(=O)n2-c2ccc(SC)cc2)c1Nc1ccccc1
≤ 1000 | Cc1cc(Nc2c(C(N)=O)sc3c2ccc(=O)n3-c2ccsc2)ccc1F
≤ 1000 | O=C(NC1CCNC1)c1sc2c(ccc(=O)n2-c2ccccc2)c1Nc1ccc(F)cc1F (centres undefined)
≤ 1000 | CCc1cccc(Nc2c(C(N)=O)sc3c2ccc(=O)n3-c2ccccc2)c1
≤ 1000 | CCOC(=O)c1sc2c(ccc(=O)n2-c2ccc(C(C)(C)O)cc2)c1Nc1ccccc1
≤ 1000 | CCOC(=O)c1sc2c(ccc(=O)n2-c2ccc3[nH]ccc3c2)c1Nc1ccccc1C#N
≤ 1000 | N#Cc1sc2c(ccc(=O)n2-c2ccccc2)c1Nc1cccc(Cl)c1
≤ 1000 | Cc1ccc(-n2c(=O)ccc3c(Nc4cccc(C)c4)c(C#N)sc32)cc1
≤ 1000 | CCOC(=O)c1sc2c(ccc(=O)n2-c2ccc(C(O)CO)cc2)c1Nc1ccccc1 (centres undefined)
≤ 1000 | CCOC(=O)c1sc2c(ccc(=O)n2-c2ccc([S+](C)[O-])cc2)c1Nc1ccccc1 (centres undefined)
≤ 1000 | NC(=O)c1sc2c(ccc(=O)n2-c2ccccc2)c1Nc1ccc(F)cc1
≤ 1000 | Cc1cc(Nc2c(C(N)=O)sc3c2ccc(=O)n3-c2ccc(F)cc2)ccc1F
≤ 1000 | NC(=O)c1sc2c(ccc(=O)n2-c2ccccc2)c1Nc1ccccc1OC(F)F
≤ 1000 | CSc1cccc(Nc2c(C#N)sc3c2ccc(=O)n3-c2ccccc2)c1
≤ 1000 | Cc1cc(Nc2c(C(N)=O)sc3c2ccc(=O)n3CC2CC2)ccc1F
≤ 1000 | CCN(CC)CCN(C)C(=O)c1sc2c(ccc(=O)n2-c2ccccc2)c1Nc1ccccc1
